Measured values reported in PMC6567057, “Pharmacokinetic, metabolic stability, plasma protein binding and CYP450s inhibition/induction assessment studies of N-(2-pyridylmethyl)-2-hydroxiymethyl-1-pyrrolidinyl-4-(3-chloro-4-methoxy-benzylamino)-5-pyrimidine-carboxamide as potential type 5 phosphodiesterase inhibitors” (Animal Cells and Systems, 2019).
Like-named read-outs stand apart in the source and are kept apart here.

Experiment: In vivo pharmacokinetic study in dogs
Parameters: species or system male Beagle dogs
Conditions: dog; for MRT inf: read-out: MRT0-∞
[1] = male, Beagle, plasma, IV 1 mg/kg
[2] = male, Beagle, plasma, PO 1 mg/kg

COc1ccc(CNc2nc(N3CCC[C@H]3CO)ncc2C(=O)NCc2ccccn2)cc1Cl [NHPPC, N-(2-pyridylmethyl)-2-hydroxiymethyl-1-pyrrolidinyl-4-(3-chloro-4-methoxy-benzylamino)-5-pyrimidine-carboxamide] showed a K10 (IV 1 mg/kg) of 0.52 ± 0.03 h⁻¹, a K10 (PO 1 mg/kg) of 0.45 ± 0.06 h⁻¹ and a BA (PO 1 mg/kg vs IV 1 mg/kg, 1 mg/kg) of 53.1 ± 14.2%. For the same compound, the AUC(0-inf) [1] was 685 ± 40 ng·h/mL, the AUC(0-t) [1] was 679 ± 38.5 ng·h/mL and the clearance [1] was 24.3 mL/min/kg. The half-life [1] was 1.33 ± 0.06 h, the MRT inf [1] was 1.15 ± 0.04 h and the Vd (male, Beagle, plasma, IV 1 mg/kg, read-out: Vss) was 1.68 ± 0.08 L/kg. The AUC(0-inf) [2] was 364 ± 97.4 ng·h/mL, the AUC(0-t) [2] was 351 ± 96.1 ng·h/mL and the Cmax [2] was 144 ± 35.3 ng/mL. For the same compound, the Tmax [2] was 0.5 h, the half-life [2] was 1.57 ± 0.22 h and the MRT inf [2] was 2.54 ± 0.15 h. For the same compound, the Tmax (male, beagle, plasma, PO 1 mg/kg) was 0.5 to 1 h.
